Data taken from patent US20040219106A1, “Compounds for use as surfactants” (priority 2001, published 2004).

Assays:
Format in all cases: physicochemical
[1] = Particle size of salmeterol xinafoate HFA 134a suspension by image analysis (Galai CIS-100)
Protocol: (§1) Salmeterol xinafoate formulations in HFA 134a (1,1,1,2-tetrafluoroethane), of strength 25 μg per actuation, and 10% w/w (relative to drug) of the surfactant compound of Example 1 (Bis(4,4,5,5,5-pentafluopentanoyl)phosphatidylcholine) were prepared using salmeterol xinafoate (5.8 mg), HFA 134a (12 g) and the relevant compound (0.58 mg). The control was prepared without the addition of a surfactant.
In this measurement, particle size is represented as the equivalent diameter of a circle of equal area to the object. The mean is the average of 4 determinations. The particle size measurement was obtained by transferring the suspensions to a presurised cell, and video-imaging the sample under shear via a microscope objective.
The equivalent diameter is defined as the diameter of a circle of equal area to the object. [formula]
The mean equivalent diameter can be weighted by number, length or volume. e.g. For three particles with equivalent diameters of x, y and z: [formula]

[2] = Andersen Cascade Impaction of salmeterol xinafoate HFA 134a formulation; settings: for % FPM (FPM as percentage of total dose emitted ex-valve) / FPM (fine particle mass, sum of stages 3-5) / Total Dose Emitted (Ex-Actuator) / Total Dose Emitted (Ex-Valve): BoU, mean of 3 cans/inhalers
Protocol: as §1
The formulation, the preparation of which is described above, was profiled using an Andersen Cascade Impactor. Ten actuations at “beginning of use” (BoU) were collected in the impactor from an inhaler after 4 priming actuations were fired to waste. The drug delivered was then quantified by HPLC analysis. Testing was performed intially (following sample preparation) and then after inhalers had been stored at 40° C./75% RH for 8 weeks and for 3 months. The results, at each timepoint, in Table 2 are shown as the mean analysis of 3 cans/inhalers.
The profile obtained was used to determine total dose emitted dose (ex-valve and ex-actuator) and the fine particle mass (FPM, defined as the sum of stages 3-5). The percentage fine particle mass expresses the FPM as a percentage of the total dose emitted (ex-valve). The FPM is used as a measure of the proportion of the drug likely to reach the therapeutic target in the lungs.

[3] = Content uniformity by dose through use testing; settings: for BuO dose: actuations 1+2, mean of 10 inhalers; for EuO dose: actuations 119+120, mean of 10 inhalers
Protocol: as §1
The content uniformity of the formulation, the preparation of which is described above, was assessed by dose through use testing. Testing was performed on 10 cans/inhalers at “beginning of use” (BoU) and “end of use” (EoU). After each inhaler had been primed (4 shots fired to waste), actuations 1 and 2 (BoU) were collected. The next 116 actuations of each inhaler were then fired to waste using an automated method and actuations 119 and 120 (EoU) collected.
Assesment of content uniformity was performed intially (following sample preparation) and then on a further 10 inhalers for each timepoint, 8 weeks and 3 months, which were stored at 40° C./75% RH. Mean results from the two BoU actuations (1+2 for 10 inhalers) and the two EoU actuations (119+120 for same 10 inhalers) at each timepoint together with the percentage relative standard deviation (% RSD) for the 10 cans are shown in Table 3.

[4] = in the presence of the surfactant

In the case of C[N+](C)(C)CCOP(=O)([O-])OC[C@@H](COC(=O)CCC(F)(F)C(F)(F)F)OC(=O)CCC(F)(F)C(F)(F)F [Example 1, Bis(4,4,5,5,5-pentafluopentanoyl)phosphatidylcholine], the “change in average particle size (mean length weighted diameter) versus control” value ([1]; compound incorporated into the formulation) is reported as “marked reduction”, the “Mean Length weighted diameter” value ([1]; salmeterol xinafoate 25 μg per actuation in HFA 134a, 10% w/w surfactant relative to drug, average of 4 determinations) is reported as 13.3 μm and the “suspension stabilising properties (discouraging flocculation of drug particles)” value ([1]; salmeterol xinafoate in HFA 134a, 10% w/w surfactant) is reported as “suspension stabilising properties”. For the same molecule, the “% FPM (FPM as percentage of total dose emitted ex-valve)” value ([2]; 3 month at 40° C./75% RH) was 42.5%, the “FPM (fine particle mass, sum of stages 3-5)” value ([2]; 3 month at 40° C./75% RH) was 10.4 µg and the “Total Dose Emitted (Ex-Actuator)” value ([2]; 3 month at 40° C./75% RH) was 20.1 µg. For the same molecule, the “Total Dose Emitted (Ex-Valve)” value ([2]; 3 month at 40° C./75% RH) was 24.4 µg, the “% FPM (FPM as percentage of total dose emitted ex-valve)” value ([2]; 8 week at 40° C./75% RH) was 44.2% and the “FPM (fine particle mass, sum of stages 3-5)” value ([2]; 8 week at 40° C./75% RH) was 10.4 µg. For the same molecule, the “Total Dose Emitted (Ex-Actuator)” value ([2]; 8 week at 40° C./75% RH) was 19.5 µg, the “Total Dose Emitted (Ex-Valve)” value ([2]; 8 week at 40° C./75% RH) was 23.5 µg and the “% FPM (FPM as percentage of total dose emitted ex-valve)” value ([2]; Initial) was 47.7%. For the same molecule, the “FPM (fine particle mass, sum of stages 3-5)” value ([2]; Initial) was 11.1 µg, the “Total Dose Emitted (Ex-Actuator)” value ([2]; Initial) was 20.0 µg and the “Total Dose Emitted (Ex-Valve)” value ([2]; Initial, 10% w/w surfactant) was 23.3 µg. For the same molecule, the “change in absolute FPM versus control” value [2, 4] was “increase”, the “change in absolute doses emitted versus control” value [2, 4] was “increase” and the “change in percentage FPM versus control” value [2, 4] was “significant increase”. The BuO dose ([3]; 3 Month at 40° C./75% RH) was 19.7 µg, the EuO dose ([3]; 3 Month at 40° C./75% RH) was 22.6 µg and the BuO dose ([3]; 8 Week at 40° C./75% RH) was 20.3 µg. For the same molecule, the EuO dose ([3]; 8 Week at 40° C./75% RH) was 24.2 µg, the “change in percentage RSD at EoU versus control (can to can reproducibility)” value ([3]; 10 inhalers tested) was “reduction” and the BuO dose ([3]; Initial) was 19.6 µg. The EuO dose ([3]; Initial) was 23.3 µg.
